Source: patent US20220280594A1, “APPLICATION OF POLYPEPTIDE OR DERIVATIVE THEREOF” (CHENGDU HUITAI BIOMEDICINE CO., LTD., priority 2019, published 2022)
Ends that are not written are not given here. PEG = not defined here

Tests used:
Format in all cases: cell-based
[1] = tested on: human non-small cell lung cancer cells (A549); assay: scratch assay, migration of A549 cells; details: A549, 10 μM, 48 hours; control group 75.31 ± 8.19
Description: (§1) In the scratch assay, the cell migration rate was negatively correlated with the inhibitory effect of the drug component on tumor cell migration ability. The cell migration inhibition experiment was described as follows: tumor cells were cultured in vitro, cells in logarithmic growth phase were collected and seeded evenly in a 24-well plate at a density of 1-2×10^5 cells/well; the cells were cultured in a cell incubator until a monolayer was formed; a scratch tool was used to make a “-” (straight) scratch on the monolayer of cells; the cells were washed 1-3 times with PBS, and a medium (with 2% fetal bovine serum) containing specific test components was added to the culture. Experimental grouping: PBS control group; polypeptide or derivative thereof treatment group (N1-N54), 10 μM. Three independent parallel wells were set up in each group, and the cells were cultured continuously in a cell incubator for 48 hours. […] At least 3 representative images for each well were taken. ImageJ software was used to count the migration distance of the cells, and the cell migration rate was calculated as: cell migration rate (%)=(width of original scratch−width of current scratch)/width of original scratch×100.
This example was a scratch assay to evaluate the inhibitory effect of the polypeptide or derivative thereof (N1-N54) on the migration ability of human non-small cell lung cancer (A549). The experimental method was as described in Example 2.

[2] = tested on: human lung cancer cells (95D); assay: scratch assay, migration of 95D cells; details: 10 μM, 48 hours, control group 55.3 ± 3.19
Description: as §1
This example was a scratch assay to evaluate the inhibitory effect of the polypeptide or derivative thereof (N1-N54) on the migration ability of human lung cancer cells (95D). The experimental method was as described in Example 2.

[3] = tested on: human lung squamous carcinoma cells (NCI-H226); assay: scratch assay, migration of NCI-H226 cells; details: NCI-H226, 10 μM, 48 hours; control group 65.31 ± 3.19
Description: as §1
This example was a scratch assay to evaluate the inhibitory effect of the polypeptide or derivative thereof (N1-N54) on the migration ability of human lung squamous carcinoma cells (NCI-H226). The experimental method was as described in Example 2.

[4] = tested on: human pancreatic cancer cells (PANC-1); assay: scratch assay, migration of PANC-1 cells; details: PANC-1, 10 μM, 48 hours; control group 66.65 ± 3.37
Description: as §1
This example was a scratch assay to evaluate the inhibitory effect of the polypeptide or derivative thereof (N1-N54) on the migration ability of human pancreatic cancer cells (PANC-1). The experimental method was as described in Example 2.

[5] = tested on: human liver cancer cells (HepG2); assay: scratch assay, migration of HepG2 cells; details: HepG2, 10 μM, 48 hours; control group 71.01 ± 6.63
Description: as §1
This example was a scratch assay to evaluate the inhibitory effect of the polypeptide or derivative thereof (N1-N54) on the migration ability of human liver cancer cells (HepG2). The experimental method was as described in Example 2.

[6] = tested on: human breast cancer cells (MDA-MB-453); assay: scratch assay, migration of MDA-MB-453 cells; details: MDA-MB-453, 10 μM, 48 hours; control group 32.42 ± 2.04
Description: as §1
This example was a scratch assay to evaluate the inhibitory effect of the polypeptide or derivative thereof (N1-N54) on the migration ability of human breast cancer cells (MDA-MB-453). The experimental method was as described in Example 2.

[7] = tested on: human breast cancer cells (MDA-MB-231); assay: scratch assay, migration of MDA-MB-231 cells; details: MDA-MB-231, 10 μM, 48 hours; control group 36.19 ± 5.15
Description: as §1
This example was a scratch assay to evaluate the inhibitory effect of the polypeptide or derivative thereof (N1-N54) on the migration ability of human breast cancer cells (MDA-MB-231). The experimental method was as described in Example 2.

[8] = tested on: human breast cancer cells (MCF-7); assay: scratch assay, migration of MCF-7 cells; details: MCF-7, 10 μM, 48 hours; control group 30.97 ± 1.79
Description: as §1
This example was a scratch assay to evaluate the inhibitory effect of the polypeptide or derivative thereof (N1-N54) on the migration ability of human breast cancer cells (MCF-7). The experimental method was as described in Example 2.

[9] = tested on: human melanoma cells (A375); assay: scratch assay, migration of A375 cells; details: A375, 10 μM, 48 hours; control group 44.03 ± 6.21
Description: as §1
This example was a scratch assay to evaluate the inhibitory effect of the polypeptide or derivative thereof (N1-N54) on the migration ability of human melanoma cells (A375). The experimental method was as described in Example 2.

[10] = tested on: human oral epidermoid carcinoma KB cells; assay: scratch assay, migration of KB cells; details: 10 μM, 48 hours, control group 54.03 ± 4.21
Description: as §1
This example was a scratch assay to evaluate the inhibitory effect of the polypeptide or derivative thereof (N1-N54) on the migration ability of human oral epidermoid carcinoma cells (KB). The experimental method was as described in Example 2.

[11] = tested on: human pharyngeal squamous-cell carcinoma cells (Fadu); assay: scratch assay, migration of Fadu cells; details: 10 μM, 48 hours, control group 28.76 ± 4.08
Description: as §1
This example was a scratch assay to evaluate the inhibitory effect of the polypeptide or derivative thereof (N1-N54) on the migration ability of human pharyngeal squamous-cell carcinoma cells (Fadu). The experimental method was as described in Example 2.

[12] = tested on: human colon cancer cells (HCT-116); assay: scratch assay, migration of HCT-116 cells; details: HCT-116, 10 μM, 48 hours; control group 47.78 ± 6.07
Description: as §1
This example was a scratch assay to evaluate the inhibitory effect of the polypeptide or derivative thereof (N1-N54) on the migration ability of human colon cancer cells (HCT-116). The experimental method was as described in Example 2.

[13] = tested on: human thyroid cancer cells (FRO); assay: scratch assay, migration of FRO cells; details: 10 μM, 48 hours, control group 60.34 ± 8.32
Description: as §1
This example was a scratch assay to evaluate the inhibitory effect of the polypeptide or derivative thereof (N1-N54) on the migration ability of human thyroid cancer cells (FRO). The experimental method was as described in Example 2.

[14] = tested on: human prostate cancer cells (22RV1); assay: scratch assay, migration of 22RV1 cells; details: 22RV1, 10 μM, 48 hours; control group 25.41 ± 5.01
Description: as §1
This example was a scratch assay to evaluate the inhibitory effect of the polypeptide or derivative thereof (N1-N54) on the migration ability of human prostate cancer cells (22RV1). The experimental method was as described in Example 2.

Row | Substance | Migration rate (%) (mean ± SD, P) [1] | Migration rate (%) (mean ± SD, P) [2] | Migration rate (%) (mean ± SD, P) [3] | Migration rate (%) (mean ± SD, P) [4] | Migration rate (%) (mean ± SD, P) [5] | Migration rate (%) (mean ± SD, P) [6] | Migration rate (%) (mean ± SD, P) [7] | Migration rate (%) (mean ± SD, P) [8] | Migration rate (%) (mean ± SD, P) [9] | Migration rate (%) (mean ± SD, P) [10] | Migration rate (%) (mean ± SD, P) [11] | Migration rate (%) (mean ± SD, P) [12] | Migration rate (%) (mean ± SD, P) [13] | Migration rate (%) (mean ± SD, P) [14]
1 | N19: SEQ ID NO: 1 with deletion of positions 1-5 and 15-18 and addition of two amino acids at the carboxyl terminal (LAKENVTQDRC) | 53.74 ± 5.46,* % | 42.04 ± 5.90,* % | 16.80 ± 8.02,*** % | 19.76 ± 7.14,*** % | 12.10 ± 6.15,*** % | 25.49 ± 2.69,* % | 15.23 ± 3.54,* % | 11.84 ± 3.95,** % | 12.93 ± 3.34,*** % | 8.14 ± 2.21,*** % | 17.23 ± 3.53,* % | 9.80 ± 2.62,*** % | 25.59 ± 4.08,** % | 5.36 ± 1.6,** %
2 | N6: SEQ ID NO: 1 with deletion of four amino acids at the carboxyl terminal (positions 15-18) (YRVRFLAKENVTQD) | 40.67 ± 3.66,** % | 39.20 ± 4.24,** % | 19.72 ± 8.97,** % | 36.66 ± 5.57,** % | 16.65 ± 6.70,*** % | 13.01 ± 3.14,** % | 17.42 ± 4.98,* % | 15.69 ± 4.09,* % | 11.22 ± 1.65,*** % | 15.79 ± 3.16,** % | 11.34 ± 2.04,** % | 18.13 ± 2.68,** % | 3.24 ± 1.80,*** % | 12.31 ± 2.85,* %
3 | N20: SEQ ID NO: 1 with addition of one amino acid at the amino terminal and deletion of position 18 (RYRVRFLAKENVTQDAED) | 55.77 ± 5.06,* % | 43.15 ± 5.46,* % | 19.54 ± 6.51,*** % | 41.56 ± 6.68,* % | 14.22 ± 6.12,*** % | 7.67 ± 1.35,** % | 20.18 ± 3.38,* % | 13.73 ± 4.97,** % | 14.61 ± 3.12,*** % | 6.92 ± 3.28,*** % | 15.21 ± 4.90,* % | 8.17 ± 1.07,*** % | 24.03 ± 8.61,* % | 4.88 ± 1.48,** %
4 | N26: SEQ ID NO: 1 with substitution A15R, addition of one amino acid at the amino terminal and one at the carboxyl terminal (FYRVRFLAKENVTQDREDNC) | 25.04 ± 6.01,** % | 37.20 ± 5.94,** % | 18.41 ± 7.90,*** % | 26.65 ± 6.37,*** % | 16.86 ± 7.90,*** % | 6.19 ± 1.42,*** % | 19.02 ± 5.06,* % | 10.43 ± 3.34,** % | 12.23 ± 2.48,*** % | 23.71 ± 4.86,* % | 13.70 ± 4.57,** % | 9.81 ± 2.92,*** % | 11.21 ± 4.01,*** % | 11.42 ± 2.08,* %
5 | N38: SEQ ID NO: 1 with one amino acid added at each terminal and PEG modification at the carboxyl terminal (FYRVRFLAKENVTQDAEDNC-{PEG}; reading uncertain) | 46.92 ± 4.49,** % | 37.60 ± 3.67,** % | 47.66 ± 6.39,* % | 24.87 ± 5.81,*** % | 12.81 ± 7.32,*** % | 12.46 ± 2.5,*** % | 18.99 ± 3.25,* % | 6.93 ± 2.24,** % | 15.57 ± 3.65,*** % | 15.57 ± 3.65,* % | 18.18 ± 3.61,* % | 5.97 ± 2.44,*** % | 19.23 ± 7.52,** % | 7.73 ± 1.58,** %
6 | N39: SEQ ID NO: 1 with addition of two amino acids and PEG modification at the carboxyl terminal (YRVRFLAKENVTQDAEDNTC-{PEG}; reading uncertain) | 56.39 ± 6.30,* % | 43.19 ± 4.82,* % | 21.82 ± 5.54,*** % | 16.29 ± 8.00,*** % | 15.73 ± 6.79,*** % | 11.02 ± 6.8,** % | 19.08 ± 3.17,* % | 7.74 ± 2.46,** % | 9.21 ± 3.20,*** % | 9.21 ± 4.20,*** % | 18.48 ± 5.74,* % | 4.29 ± 2.88,*** % | 36.51 ± 4.36,* % | 4.21 ± 2.81,** %
